Test results as given in ChEMBL document CHEMBL4507299, “Data for DCP probe PF-04554878” (2021).

How the values were obtained:
[1] = biological target: Phosphatidylinositol 4,5-bisphosphate 3-kinase catalytic subunit gamma isoform (Homo sapiens) (UniProt P48736)
[2] = biological target: Phosphatidylinositol 4,5-bisphosphate 3-kinase catalytic subunit alpha isoform (Homo sapiens) (UniProt P42336)
[3] = biological target: Serine/threonine-protein kinase pim-2 (Homo sapiens) (UniProt Q9P1W9)
[4] = system: Hepatocyte growth factor receptor (Homo sapiens), P08581 [M1250T]
[5] = biological target: Bone morphogenetic protein receptor type-2 (Homo sapiens) (UniProt Q13873)
[6] = biological target: Serine/threonine-protein kinase/endoribonuclease IRE1 (Homo sapiens) (UniProt O75460)
[7] = biological target: Serine/threonine-protein kinase WNK2 (Homo sapiens) (UniProt Q9Y3S1)
[8] = biological target: G protein-coupled receptor kinase 3 (Homo sapiens) (UniProt P35626)
[9] = biological target: Serine/threonine-protein kinase TNNI3K (Homo sapiens) (UniProt Q59H18)
[10] = biological target: Interleukin-1 receptor-associated kinase 1 (Homo sapiens) (UniProt P51617)
[11] = biological target: Ephrin type-A receptor 5 (Homo sapiens) (UniProt P54756)
[12] = biological target: Ribosomal protein S6 kinase alpha-3 (Homo sapiens) (UniProt P51812)
Chain of Ribosomal protein S6 kinase alpha-3 (Homo sapiens) (P51812 whole entry): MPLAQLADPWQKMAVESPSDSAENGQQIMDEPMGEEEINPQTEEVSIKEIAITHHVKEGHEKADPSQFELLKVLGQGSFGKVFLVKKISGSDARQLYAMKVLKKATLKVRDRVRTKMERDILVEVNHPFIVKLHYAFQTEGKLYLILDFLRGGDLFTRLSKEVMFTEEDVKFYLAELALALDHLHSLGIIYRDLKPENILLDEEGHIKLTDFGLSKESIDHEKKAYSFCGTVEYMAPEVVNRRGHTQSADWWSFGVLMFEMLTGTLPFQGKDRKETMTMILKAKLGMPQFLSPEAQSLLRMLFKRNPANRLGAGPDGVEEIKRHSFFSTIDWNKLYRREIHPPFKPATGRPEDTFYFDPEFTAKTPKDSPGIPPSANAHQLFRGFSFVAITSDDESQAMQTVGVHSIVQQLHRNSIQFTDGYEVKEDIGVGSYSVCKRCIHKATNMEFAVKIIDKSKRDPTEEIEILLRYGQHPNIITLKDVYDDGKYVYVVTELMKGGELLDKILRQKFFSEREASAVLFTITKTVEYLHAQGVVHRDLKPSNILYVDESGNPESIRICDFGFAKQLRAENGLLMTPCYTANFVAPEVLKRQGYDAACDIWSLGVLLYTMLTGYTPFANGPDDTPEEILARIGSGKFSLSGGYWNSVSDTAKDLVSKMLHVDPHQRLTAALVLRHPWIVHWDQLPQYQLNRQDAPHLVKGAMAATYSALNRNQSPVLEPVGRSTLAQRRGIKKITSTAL

[13] = biological target: Serine/threonine-protein kinase pim-1 (Homo sapiens) (UniProt P11309)
[14] = biological target: T1, Serine/threonine-protein kinase Chk1 (Homo sapiens) (UniProt O14757)
T1 sequence (whole entry): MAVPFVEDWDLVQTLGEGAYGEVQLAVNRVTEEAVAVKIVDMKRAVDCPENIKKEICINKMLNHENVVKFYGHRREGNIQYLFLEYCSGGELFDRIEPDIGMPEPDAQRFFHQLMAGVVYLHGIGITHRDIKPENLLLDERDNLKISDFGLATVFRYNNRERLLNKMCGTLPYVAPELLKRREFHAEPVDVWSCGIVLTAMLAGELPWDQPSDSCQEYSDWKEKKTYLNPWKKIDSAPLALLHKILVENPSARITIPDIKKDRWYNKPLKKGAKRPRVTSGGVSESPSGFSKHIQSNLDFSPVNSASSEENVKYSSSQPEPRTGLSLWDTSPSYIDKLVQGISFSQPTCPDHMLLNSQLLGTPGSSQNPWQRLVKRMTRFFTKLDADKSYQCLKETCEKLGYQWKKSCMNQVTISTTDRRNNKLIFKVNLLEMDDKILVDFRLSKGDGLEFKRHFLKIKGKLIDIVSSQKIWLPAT

[15] = biological target: Tyrosine-protein kinase Lck (Homo sapiens) (UniProt P06239)
[16] = biological target: Serine/threonine-protein kinase Nek9 (Homo sapiens) (UniProt Q8TD19)
[17] = biological target: Serine/threonine-protein kinase PAK 2 (Homo sapiens) (UniProt Q13177)
[18] = biological target: BDNF/NT-3 growth factors receptor (Homo sapiens) (UniProt Q16620)
Chain of BDNF/NT-3 growth factors receptor (Homo sapiens) (Q16620 32-822 limits assumed): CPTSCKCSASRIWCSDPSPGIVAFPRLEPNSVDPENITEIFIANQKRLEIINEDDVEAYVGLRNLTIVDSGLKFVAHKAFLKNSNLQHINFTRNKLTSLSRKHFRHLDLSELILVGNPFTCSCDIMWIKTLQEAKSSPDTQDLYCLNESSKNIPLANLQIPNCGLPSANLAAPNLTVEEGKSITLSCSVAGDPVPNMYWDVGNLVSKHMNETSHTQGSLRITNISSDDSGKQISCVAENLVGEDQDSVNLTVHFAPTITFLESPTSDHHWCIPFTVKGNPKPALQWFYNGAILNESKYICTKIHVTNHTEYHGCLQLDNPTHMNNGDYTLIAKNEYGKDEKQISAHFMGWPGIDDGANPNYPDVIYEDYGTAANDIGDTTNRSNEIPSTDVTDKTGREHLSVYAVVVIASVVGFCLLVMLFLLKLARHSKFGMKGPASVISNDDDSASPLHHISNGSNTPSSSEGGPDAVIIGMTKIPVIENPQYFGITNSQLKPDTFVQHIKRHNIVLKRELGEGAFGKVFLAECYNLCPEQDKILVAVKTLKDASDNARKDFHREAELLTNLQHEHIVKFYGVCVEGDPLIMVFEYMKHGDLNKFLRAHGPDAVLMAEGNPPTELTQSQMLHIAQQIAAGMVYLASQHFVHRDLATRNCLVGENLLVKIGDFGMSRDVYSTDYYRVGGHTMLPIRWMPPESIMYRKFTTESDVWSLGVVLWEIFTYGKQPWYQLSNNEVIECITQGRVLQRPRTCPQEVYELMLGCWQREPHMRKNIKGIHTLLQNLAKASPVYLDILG

[19] = biological target: Serine/threonine-protein kinase 32B (Homo sapiens) (UniProt Q9NY57)
Chain of Serine/threonine-protein kinase 32B (Homo sapiens) (Q9NY57 whole entry): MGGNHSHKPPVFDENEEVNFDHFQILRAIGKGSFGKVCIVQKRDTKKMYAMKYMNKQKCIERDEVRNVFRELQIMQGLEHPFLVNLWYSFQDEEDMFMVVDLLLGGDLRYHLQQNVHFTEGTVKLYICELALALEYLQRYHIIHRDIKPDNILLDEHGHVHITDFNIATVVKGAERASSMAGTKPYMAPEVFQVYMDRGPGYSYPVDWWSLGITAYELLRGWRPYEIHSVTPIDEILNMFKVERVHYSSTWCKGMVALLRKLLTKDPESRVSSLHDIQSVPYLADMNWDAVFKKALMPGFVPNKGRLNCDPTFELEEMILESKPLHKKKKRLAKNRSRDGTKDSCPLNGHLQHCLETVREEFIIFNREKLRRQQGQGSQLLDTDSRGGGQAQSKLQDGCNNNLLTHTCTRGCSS

[20] = biological target: Ephrin type-B receptor 4 (Homo sapiens) (UniProt P54760)
[21] = biological target: Serine/threonine-protein kinase PLK3 (Homo sapiens) (UniProt Q9H4B4)
[22] = biological target: Mitogen-activated protein kinase 9 (Homo sapiens) (UniProt P45984)
[23] = biological target: Beta-adrenergic receptor kinase 1 (Homo sapiens) (UniProt P25098)
Chain of Beta-adrenergic receptor kinase 1 (Homo sapiens) (P25098 whole entry): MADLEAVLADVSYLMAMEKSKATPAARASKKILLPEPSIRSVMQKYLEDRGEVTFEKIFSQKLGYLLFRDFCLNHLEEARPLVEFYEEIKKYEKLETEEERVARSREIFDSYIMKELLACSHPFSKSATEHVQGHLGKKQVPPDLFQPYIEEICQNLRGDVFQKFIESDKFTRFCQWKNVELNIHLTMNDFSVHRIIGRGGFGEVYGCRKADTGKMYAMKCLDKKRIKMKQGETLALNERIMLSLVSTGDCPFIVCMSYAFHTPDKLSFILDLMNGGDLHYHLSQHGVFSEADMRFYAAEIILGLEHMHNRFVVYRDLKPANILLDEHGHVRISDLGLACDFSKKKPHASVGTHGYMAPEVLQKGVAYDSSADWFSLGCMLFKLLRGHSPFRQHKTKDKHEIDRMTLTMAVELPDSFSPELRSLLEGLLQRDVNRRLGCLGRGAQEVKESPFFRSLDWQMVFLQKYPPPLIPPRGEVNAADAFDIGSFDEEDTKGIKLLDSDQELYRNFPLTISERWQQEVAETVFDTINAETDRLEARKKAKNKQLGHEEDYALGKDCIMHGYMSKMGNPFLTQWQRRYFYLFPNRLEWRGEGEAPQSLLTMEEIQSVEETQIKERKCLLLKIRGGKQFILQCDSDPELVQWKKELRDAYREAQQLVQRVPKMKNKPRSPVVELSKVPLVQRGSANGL

Rattus norvegicus = species on record: Rattus norvegicus; conditions: Compound concentration 10.0 uM
[24] = biological target: LIM domain kinase 1 (Homo sapiens) (UniProt P53667)
Chain of LIM domain kinase 1 (Homo sapiens) (P53667 whole entry, looked up, the tested form may be a part): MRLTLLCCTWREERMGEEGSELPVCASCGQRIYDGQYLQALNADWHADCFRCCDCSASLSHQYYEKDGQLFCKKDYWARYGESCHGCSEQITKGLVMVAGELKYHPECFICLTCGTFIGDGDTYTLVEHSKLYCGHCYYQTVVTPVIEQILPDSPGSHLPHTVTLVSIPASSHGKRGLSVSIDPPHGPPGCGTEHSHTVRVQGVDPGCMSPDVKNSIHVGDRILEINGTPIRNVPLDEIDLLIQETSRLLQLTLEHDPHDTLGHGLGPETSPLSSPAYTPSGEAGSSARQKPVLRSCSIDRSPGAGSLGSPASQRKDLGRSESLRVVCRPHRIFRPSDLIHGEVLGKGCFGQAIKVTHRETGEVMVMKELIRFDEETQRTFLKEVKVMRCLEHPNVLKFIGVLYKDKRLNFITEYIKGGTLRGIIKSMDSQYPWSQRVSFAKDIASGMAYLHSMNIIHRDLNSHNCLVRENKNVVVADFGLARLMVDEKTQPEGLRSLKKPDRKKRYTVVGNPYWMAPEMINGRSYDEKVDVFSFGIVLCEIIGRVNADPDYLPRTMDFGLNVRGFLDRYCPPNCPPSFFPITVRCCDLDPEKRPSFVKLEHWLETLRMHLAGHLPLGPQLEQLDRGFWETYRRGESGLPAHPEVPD

[25] = biological target: Receptor-type tyrosine-protein kinase FLT3 (Homo sapiens) (UniProt P36888)
[26] = biological target: Alpha-2B adrenergic receptor (Homo sapiens) (UniProt P18089); conditions: Compound concentration 10.0 uM
[27] = biological target: Ankyrin repeat and protein kinase domain-containing protein 1 (Homo sapiens) (UniProt Q8NFD2)
[28] = biological target: Non-receptor tyrosine-protein kinase TNK1 (Homo sapiens) (UniProt Q13470)
[29] = biological target: Mitogen-activated protein kinase 4 (Homo sapiens) (UniProt P31152)
Chain of Mitogen-activated protein kinase 4 (Homo sapiens) (P31152 whole entry): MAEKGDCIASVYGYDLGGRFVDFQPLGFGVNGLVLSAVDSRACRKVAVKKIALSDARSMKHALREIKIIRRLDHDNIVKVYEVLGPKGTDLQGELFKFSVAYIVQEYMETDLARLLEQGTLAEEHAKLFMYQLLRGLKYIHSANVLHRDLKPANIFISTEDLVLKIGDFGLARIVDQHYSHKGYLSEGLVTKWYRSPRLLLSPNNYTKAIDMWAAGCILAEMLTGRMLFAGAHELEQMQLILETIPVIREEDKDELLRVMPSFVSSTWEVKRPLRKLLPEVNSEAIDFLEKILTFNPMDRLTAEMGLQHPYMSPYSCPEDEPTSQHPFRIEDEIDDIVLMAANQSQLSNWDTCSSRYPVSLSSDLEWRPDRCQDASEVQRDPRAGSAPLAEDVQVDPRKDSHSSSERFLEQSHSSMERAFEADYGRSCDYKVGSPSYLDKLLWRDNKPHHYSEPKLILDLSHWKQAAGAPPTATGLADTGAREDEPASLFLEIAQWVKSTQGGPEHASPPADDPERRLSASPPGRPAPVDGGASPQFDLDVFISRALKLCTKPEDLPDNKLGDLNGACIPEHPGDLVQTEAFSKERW

[30] = biological target: Ephrin type-B receptor 2 (Homo sapiens) (UniProt P29323)
[31] = biological target: Dual specificity protein kinase CLK4 (Homo sapiens) (UniProt Q9HAZ1)
[32] = biological target: Tyrosine-protein kinase SYK (Homo sapiens) (UniProt P43405)
[33] = biological target: Proto-oncogene tyrosine-protein kinase Src (Homo sapiens, UniProt P12931)
[34] = biological target: Serine/threonine-protein kinase PknB (Mycobacterium tuberculosis) (UniProt P9WI81)
[35] = biological target: Mitogen-activated protein kinase kinase kinase kinase 2 (Homo sapiens) (UniProt Q12851)
[36] = biological target: Protein kinase C delta type (Homo sapiens) (UniProt Q05655)
[37] = biological target: Serine/threonine-protein kinase N2 (Homo sapiens) (UniProt Q16513)
Chain of Serine/threonine-protein kinase N2 (Homo sapiens) (Q16513 whole entry, looked up): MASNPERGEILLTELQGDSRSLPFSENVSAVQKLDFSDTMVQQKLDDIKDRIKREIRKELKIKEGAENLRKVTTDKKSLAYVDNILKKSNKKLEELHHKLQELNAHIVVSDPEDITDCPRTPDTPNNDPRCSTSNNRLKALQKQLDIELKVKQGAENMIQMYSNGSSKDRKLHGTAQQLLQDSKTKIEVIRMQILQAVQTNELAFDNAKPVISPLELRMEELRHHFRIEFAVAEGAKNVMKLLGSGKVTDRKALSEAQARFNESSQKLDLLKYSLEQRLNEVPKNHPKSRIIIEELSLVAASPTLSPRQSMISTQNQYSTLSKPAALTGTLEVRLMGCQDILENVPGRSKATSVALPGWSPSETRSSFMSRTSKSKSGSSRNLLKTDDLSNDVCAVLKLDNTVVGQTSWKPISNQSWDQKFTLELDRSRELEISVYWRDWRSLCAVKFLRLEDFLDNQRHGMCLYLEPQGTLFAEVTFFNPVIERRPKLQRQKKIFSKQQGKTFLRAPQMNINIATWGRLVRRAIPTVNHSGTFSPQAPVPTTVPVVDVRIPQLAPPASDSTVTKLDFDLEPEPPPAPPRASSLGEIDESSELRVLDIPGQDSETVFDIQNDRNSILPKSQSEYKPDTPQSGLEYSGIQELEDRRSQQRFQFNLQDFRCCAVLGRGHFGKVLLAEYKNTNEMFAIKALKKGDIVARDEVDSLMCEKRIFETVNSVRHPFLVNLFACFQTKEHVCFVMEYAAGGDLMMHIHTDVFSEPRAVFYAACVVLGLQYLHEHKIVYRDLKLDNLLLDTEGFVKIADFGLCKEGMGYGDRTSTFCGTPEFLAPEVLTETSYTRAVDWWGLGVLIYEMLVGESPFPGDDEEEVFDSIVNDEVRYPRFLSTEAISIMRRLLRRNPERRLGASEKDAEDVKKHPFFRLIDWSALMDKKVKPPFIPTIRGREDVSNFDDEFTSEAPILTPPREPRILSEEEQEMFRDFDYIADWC

[38] = biological target: Serine/threonine-protein kinase MRCK alpha (Homo sapiens) (UniProt Q5VT25)
[39] = Compound concentration 100.0 nM
[40] = Compound concentration 1000.0 nM

For CNC(=O)c1ccc(Nc2ncc(C(F)(F)F)c(NCc3nccnc3N(C)S(C)(=O)=O)n2)cc1 [DEFACTINIB], the residual activity [1, 39] was 100%, the residual activity [2, 39] was 100% and the residual activity [3, 39] was 100%. It also gave a residual activity [4, 39] of 63%, a residual activity [5, 39] of 91% and a residual activity [6, 39] of 75%. For the same compound, the residual activity [7, 39] was 94%, the residual activity [8, 39] was 80% and the residual activity [9, 39] was 100%. The residual activity [10, 39] was 77%, the residual activity [11, 39] was 64% and the residual activity [12, 39] was 82%. For the same compound, the residual activity [13, 39] was 93%, the residual activity [14, 39] was 100% and the residual activity [15, 39] was 87%. It also gave a residual activity [16, 39] of 80%, a residual activity [17, 39] of 72% and a residual activity [18, 39] of 21%. For the same compound, the residual activity [19, 39] was 97%, the residual activity [20, 39] was 94% and the residual activity [21, 39] was 91%. The residual activity [22, 39] was 95%, the residual activity [23, 39] was 89% and the inhibition (Rattus norvegicus) was 31.4%. The residual activity [24, 39] was 100%, the residual activity [25, 39] was 46% and the inhibition [26] was 5.76%. It also gave a residual activity [27, 39] of 88%, a residual activity [28, 39] of 100% and a residual activity [29, 39] of 87%. The residual activity [30, 39] was 76%, the residual activity [31, 39] was 25% and the residual activity [32, 39] was 66%. For the same compound, the residual activity [33, 39] was 79%, the residual activity [34, 39] was 69% and the residual activity [35, 39] was 100%. The residual activity [36, 39] was 100%, the residual activity [37, 39] was 37% and the residual activity [38, 39] was 98%.
With CN(c1ccnc(CNc2nc(Nc3ccc4c(c3)CC(=O)N4)ncc2C(F)(F)F)n1)S(C)(=O)=O [PF-00911705] the residual activity [1, 40] was 100%, the residual activity [2, 40] was 100% and the residual activity [3, 40] was 100%. For the same compound, the residual activity [4, 40] was 6.8%, the residual activity [5, 40] was 60% and the residual activity [6, 40] was 49%. For the same compound, the residual activity [7, 40] was 22%, the residual activity [8, 40] was 91% and the residual activity [9, 40] was 73%. For the same compound, the residual activity [10, 40] was 13%, the residual activity [11, 40] was 82% and the residual activity [12, 40] was 25%. The residual activity [13, 40] was 79%, the residual activity [14, 40] was 57% and the residual activity [15, 40] was 46%. It also gave a residual activity [16, 40] of 63%, a residual activity [17, 40] of 83% and a residual activity [18, 40] of 21%. For the same compound, the residual activity [19, 40] was 100%, the residual activity [20, 40] was 96% and the residual activity [21, 40] was 1.7%. It also gave a residual activity [22, 40] of 79%, a residual activity [23, 40] of 31% and an inhibition (Rattus norvegicus) of 62.1%. It also gave a residual activity [24, 40] of 97%, a residual activity [25, 40] of 23% and an inhibition [26] of -4.21%. The residual activity [27, 40] was 84%, the residual activity [28, 40] was 65% and the residual activity [29, 40] was 57%. It also gave a residual activity [30, 40] of 81%, a residual activity [31, 40] of 1.4% and a residual activity [32, 40] of 5.7%. The residual activity [33, 40] was 60%, the residual activity [34, 40] was 80% and the residual activity [35, 40] was 39%. It also gave a residual activity [36, 40] of 78%, a residual activity [37, 40] of 22% and a residual activity [38, 40] of 80%.
